pEC50: −log10 of the molar value.
Key:
human FPR1 = biological target: T1, human FPR1 (Homo sapiens, UniProt P21462); experiment: FPR1 cyclic adenosine monophosphate (cAMP) assay; type: cell-based; settings: CHO cells overexpressing human FPR1; forskolin 10 μM; inhibition of cAMP production; HTRF; read-out: hFPR1 cAMP2 EC50
T1 sequence (P21462 1-350): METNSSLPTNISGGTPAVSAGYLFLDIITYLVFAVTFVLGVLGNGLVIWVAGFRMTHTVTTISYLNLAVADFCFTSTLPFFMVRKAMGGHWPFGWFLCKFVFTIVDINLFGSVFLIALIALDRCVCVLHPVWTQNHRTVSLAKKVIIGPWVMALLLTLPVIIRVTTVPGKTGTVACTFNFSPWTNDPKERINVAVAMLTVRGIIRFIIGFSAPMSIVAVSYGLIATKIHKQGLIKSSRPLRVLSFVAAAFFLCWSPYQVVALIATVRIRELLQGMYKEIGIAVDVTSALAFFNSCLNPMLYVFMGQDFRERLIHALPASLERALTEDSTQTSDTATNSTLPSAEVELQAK
Text: (§1) N-formyl peptide receptors (FPRs) are a family of chemo attractant receptors that facilitate leukocyte response during inflammation. FPRs belong to the seven-transmembrane G protein-coupled receptor superfamily and are linked to inhibitory G-proteins (Gi). Three family members (FPR1, FPR2 and FPR3) have been identified in humans and are predominantly found in myeloid cells with varied distribution and have also been reported in multiple organs and tissues. After agonist binding, the FPRs activate a multitude of physiological pathways, such as intra cellular signaling transduction, Ca^2+ mobilization and transcription. The family interacts with a diverse set of ligands that includes proteins, polypeptides and fatty acid metabolites which activate both pro-inflammatory and pro-resolution downstream responses. FPR2 and FPR1 Cyclic Adenosine Monophosphate (cAMP) Assays were used to measure the in vitro activity of the compounds disclosed in this application.
(§2) FPR2 and FPR1 Cyclic Adenosine Monophosphate (cAMP) Assays. A mixture of forskolin (5 μM final for FPR2 or 10 μM final for FPR1) and IBMX (200 μM final) were added to 384-well Proxiplates (Perkin-Elmer) pre-dotted with test compounds in DMSO (1% final) at final concentrations in the range of 0.020 nM to 100 μM. Chinese Hamster Ovary cells (CHO) overexpressing human FPR1 or human FPR2 receptors were cultured in F-12 (Ham's) medium supplemented with 10% qualified FBS, 250 μg/mL zeocin and 300 μg/mL hygromycin (Life Technologies). Reactions were initiated by adding 2,000 human FPR2 cells per well or 4,000 human FPR1 cells per well in Dulbecco's PBS (with calcium and magnesium) (Life Technologies) supplemented with 0.1% BSA (Perkin-Elmer). The reaction mixtures were incubated for 30 min at rt. The level of intracellular cAMP was determined using the HTRF HiRange cAMP assay reagent kit (Cisbio) according to manufacturer's instruction. Solutions of cryptate conjugated anti-cAMP and d2 flurorophore-labeled cAMP were made in a supplied lysis buffer separately. Upon completion of the reaction, the cells were lysed with equal volume of the d2-cAMP solution and anti-cAMP solution. […] The potency and activity of a compound to inhibit cAMP production was then determined by fitting to a 4-parametric logistic equation from a plot of cAMP level versus compound concentrations.

human FPR2 = biological target: T2, human FPR2 (Homo sapiens, UniProt P25090); experiment: FPR2 cyclic adenosine monophosphate (cAMP) assay; type: cell-based; settings: CHO cells overexpressing human FPR2; forskolin 5 μM; inhibition of cAMP production; HTRF; read-out: hFPR2 cAMP2 EC50
T2 sequence (P25090 1-351): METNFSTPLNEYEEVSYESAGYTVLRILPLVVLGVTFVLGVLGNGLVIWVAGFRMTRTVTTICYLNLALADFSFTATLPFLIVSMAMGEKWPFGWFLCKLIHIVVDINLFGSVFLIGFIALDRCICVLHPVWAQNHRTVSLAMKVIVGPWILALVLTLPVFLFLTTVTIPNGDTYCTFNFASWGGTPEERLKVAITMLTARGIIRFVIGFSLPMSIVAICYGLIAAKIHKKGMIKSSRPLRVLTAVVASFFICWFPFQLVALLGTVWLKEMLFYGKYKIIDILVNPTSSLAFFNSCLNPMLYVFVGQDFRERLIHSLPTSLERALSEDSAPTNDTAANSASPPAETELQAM
Text: as §1, §2

Row | SMILES | pEC50 (human FPR1) | pEC50 (human FPR2)
1 | COc1cc(F)c(-c2c(NC(=O)c3ccc(OC(F)F)cc3)c(=O)n(-c3ccccc3)n2C)c(F)c1 [Example 1, N-[5-(2,6-difluoro-4-methoxyphenyl)-1-methyl-3-oxo-2-phenyl-2,3-dihydro-1H-pyrazol-4-yl]-4-(difluoromethoxy)benzamide] | 5.62 | 7.92
2 | COc1cc(F)c(-c2c(NC(=O)c3ccc(OC(F)F)cc3)c(=O)n(-c3cccc(C)c3C)n2C)c(F)c1 [Example 3, N-[5-(2,6-difluoro-4-methoxyphenyl)-2-(2,3-dimethylphenyl)-1-methyl-3-oxo-2,3-dihydro-1H-pyrazol-4-yl]-4-(difluoromethoxy)benzamide] | 5.72 | 8.10
3 | COc1cc(F)c(-c2c(NC(=O)c3ccc(OC(F)F)cc3)c(=O)n(-c3cc(C(F)F)ccn3)n2C)c(F)c1 [Example 76, N-[5-(2,6-difluoro-4-methoxyphenyl)-2-[4-(difluoromethyl)pyridin-2-yl]-1-methyl-3-oxo-2,3-dihydro-1H-pyrazol-4-yl]-4-(difluoromethoxy)benzamide] | – | 7.92
4 | COc1cc(CO)nc(-n2c(=O)c(NC(=O)c3ccc(OC(F)F)cc3)c(-c3c(F)cc(OC)cc3F)n2C)c1 [Example 90, N-[5-(2,6-difluoro-4-methoxyphenyl)-2-[6-(hydroxymethyl)-4-methoxypyridin-2-yl]-1-methyl-3-oxo-2,3-dihydro-1H-pyrazol-4-yl]-4-(difluoromethoxy)benzamide] | – | 8.10
5 | COc1cc(N2CCCC2)nc(-n2c(=O)c(NC(=O)c3ccc(OC(F)F)cc3)c(-c3c(F)cc(OC)cc3F)n2C)c1 [Example 91, N-(5-(2,6-difluoro-4-methoxyphenyl)-2-(4-methoxy-6-(pyrrolidin-1-yl)pyridin-2-yl)-1-methyl-3-oxo-2,3-dihydro-1H-pyrazol-4-yl)-4-(difluoromethoxy)benzamide] | – | 7.70
6 | COc1cc(N2CC[C@@H](O)C2)nc(-n2c(=O)c(NC(=O)c3ccc(OC(F)F)cc3)c(-c3c(F)cc(OC)cc3F)n2C)c1 [Example 95, N-[5-(2,6-difluoro-4-methoxyphenyl)-2-{6-[(3R)-3-hydroxypyrrolidin-1-yl]-4-methoxypyridin-2-yl}-1-methyl-3-oxo-2,3-dihydro-1H-pyrazol-4-yl]-4-(difluoromethoxy)benzamide] | – | 8.10
7 | COc1cc(N2CC(C)(O)C2)nc(-n2c(=O)c(NC(=O)c3ccc(OC(F)F)cc3)c(-c3c(F)cc(OC)cc3F)n2C)c1 [Example 96, N-[5-(2,6-difluoro-4-methoxyphenyl)-2-[6-(3-hydroxy-3-methylazetidin-1-yl)-4-methoxypyridin-2-yl]-1-methyl-3-oxo-2,3-dihydro-1H-pyrazol-4-yl]-4-(difluoromethoxy)benzamide] | – | 8.15
8 | COc1cc(F)c(-c2c(NC(=O)c3ccc(OC(F)F)cc3)c(=O)n(-c3cc(OC(C)C)cc(OCCO)n3)n2C)c(F)c1 [Example 378, N-(5-(2,6-Difluoro-4-methoxyphenyl)-2-(6-(2-hydroxyethoxy)-4-isopropoxypyridin-2-yl)-1-methyl-3-oxo-2,3-dihydro-1H-pyrazol-4-yl)-4-(difluoromethoxy)benzamide] | 7.60 | –

More lines, in order of rising pEC50 (human FPR2), values ahead:

Row | pEC50 (human FPR1) | pEC50 (human FPR2) | SMILES
9 | – | 8.22 | COc1cc(NCCO)nc(-n2c(=O)c(NC(=O)c3ccc(OC(F)F)cc3)c(-c3c(F)cc(OC)cc3F)n2C)c1 [Example 94, N-[5-(2,6-difluoro-4-methoxyphenyl)-2-{6-[(2-hydroxyethyl)amino]-4-methoxypyridin-2-yl}-1-methyl-3-oxo-2,3-dihydro-1H-pyrazol-4-yl]-4-(difluoromethoxy)benzamide]
10 | – | 8.22 | COc1cc(N2CC[C@H](F)C2)nc(-n2c(=O)c(NC(=O)c3ccc(OC(F)F)cc3)c(-c3c(F)cc(OC)cc3F)n2C)c1 [Example 98, N-[5-(2,6-difluoro-4-methoxyphenyl)-2-{6-[(3S)-3-fluoropyrrolidin-1-yl]-4-methoxypyridin-2-yl}-1-methyl-3-oxo-2,3-dihydro-1H-pyrazol-4-yl]-4-(difluoromethoxy)benzamide]
11 | 6.68 | 8.30 | COc1cc(F)c(-c2c(NC(=O)c3ccc(OC(F)(F)F)cc3)c(=O)n(-c3cccc(F)c3)n2C)c(F)c1 [Example 2, N-[5-(2,6-difluoro-4-methoxyphenyl)-2-(3-fluorophenyl)-1-methyl-3-oxo-2,3-dihydro-1H-pyrazol-4-yl]-4-(trifluoromethoxy)benzamide]
12 | – | 8.30 | COc1cc(N2CC(OC(C)C)C2)nc(-n2c(=O)c(NC(=O)c3ccc(OC(F)F)cc3)c(-c3c(F)cc(OC)cc3F)n2C)c1 [Example 106, N-[5-(2,6-difluoro-4-methoxyphenyl)-2-{4-methoxy-6-[3-(propan-2-yloxy)azetidin-1-yl]pyridin-2-yl}-1-methyl-3-oxo-2,3-dihydro-1H-pyrazol-4-yl]-4-(difluoromethoxy)benzamide]
13 | – | 8.30 | COc1cc(F)c(-c2c(NC(=O)c3ccc(OC(F)F)cc3)c(=O)n(-c3cccc(N4CCN(CCO)CC4)n3)n2C)c(F)c1 [Example 107, N-[5-(2,6-difluoro-4-methoxyphenyl)-2-{6-[4-(2-hydroxyethyl)piperazin-1-yl]pyridin-2-yl}-1-methyl-3-oxo-2,3-dihydro-1H-pyrazol-4-yl]-4-(difluoromethoxy)benzamide]
14 | – | 8.40 | COc1cc(N2CCC(F)(F)C2)nc(-n2c(=O)c(NC(=O)c3ccc(OC(F)F)cc3)c(-c3c(F)cc(OC)cc3F)n2C)c1 [Example 99, N-[5-(2,6-difluoro-4-methoxyphenyl)-2-[6-(3,3-difluoropyrrolidin-1-yl)-4-methoxypyridin-2-yl]-1-methyl-3-oxo-2,3-dihydro-1H-pyrazol-4-yl]-4-(difluoromethoxy)benzamide]
15 | – | 8.52 | COc1cc(N2CCN(C)CC2)nc(-n2c(=O)c(NC(=O)c3ccc(OC(F)F)cc3)c(-c3c(F)cc(OC)cc3F)n2C)c1 [Example 101, N-[5-(2,6-difluoro-4-methoxyphenyl)-2-[4-methoxy-6-(4-methylpiperazin-1-yl)pyridin-2-yl]-1-methyl-3-oxo-2,3-dihydro-1H-pyrazol-4-yl]-4-(difluoromethoxy)benzamide]
16 | – | 8.52 | COc1cc(OC)cc(-n2c(=O)c(NC(=O)c3ccc(OC(F)F)cc3)c(-c3c(F)cc(OC)cc3F)n2C)c1 [Example 108]
17 | – | 9.00 | COc1cc(F)c(-c2c(NC(=O)c3ccc(OC(F)F)cc3)c(=O)n(-c3cccc(N4C[C@@H](C)N(C)[C@@H](C)C4)n3)n2C)c(F)c1 [Example 103, N-[5-(2,6-difluoro-4-methoxyphenyl)-1-methyl-3-oxo-2-{6-[(3R,5S)-3,4,5-trimethylpiperazin-1-yl]pyridin-2-yl}-2,3-dihydro-1H-pyrazol-4-yl]-4-(difluoromethoxy)benzamide]
18 | – | 9.00 | COc1cc(N2C3CCC2CN(C)C3)nc(-n2c(=O)c(NC(=O)c3ccc(OC(F)F)cc3)c(-c3c(F)cc(OC)cc3F)n2C)c1 [Example 105, N-[5-(2,6-difluoro-4-methoxyphenyl)-2-(4-methoxy-6-{3-methyl-3,8-diazabicyclo[3.2.1]octan-8-yl}pyridin-2-yl)-1-methyl-3-oxo-2,3-dihydro-1H-pyrazol-4-yl]-4-(difluoromethoxy)benzamide]
19 | – | 9.00 | COc1cc(C2CCNCC2)nc(-n2c(=O)c(NC(=O)c3ccc(OC(F)F)cc3)c(-c3c(F)cc(OC)cc3F)n2C)c1 [Example 367, N-(5-(2,6-Difluoro-4-methoxyphenyl)-2-(4-methoxy-6-(piperidin-4-yl)pyridin-2-yl)-1-methyl-3-oxo-2,3-dihydro-1H-pyrazol-4-yl)-4-(difluoromethoxy)benzamide]
